Source: patent US4293483A, “Derivatives of A-30912A nucleus” (priority 1980, dated 1981)
Values joined by “and” are separate entries in the source; they are usually repeats but may differ in a detail not shown here. Equal entries are not always repeated. Where two headings read alike, the source gives them in different places. Numbered stars: 1 amine (or outer) side, 2 acyl side, 3 side chain; on linkers, the order of the positions; unused ones are H or OH. Bridge positions count the residues as written; N and C are the ends. Square brackets hold non-standard residues; d marks the D form. Peptide text beside a SMILES is read from it. * marks the point of attachment. ξ: configuration not given here. Orn(4R-OH,5R-OH) = O=C([C@H](C[C@@H](O)[C@@H](O)N[*:3])N[*:1])[*:2]; hTyr(3S-OH,4S-OH) = N[C@H](C(=O)O)[C@H](O)[C@@H](O)c1ccc(O)cc1; Pro(3S-OH,4S-Me) = C[C@H]1CN[C@H](C(=O)O)[C@H]1O; X1 = O=C(c1cc(I)c(N[*:1])c(I)c1)[*:2]; X5 = O=C(c1cc(Cl)cc(N[*:1])c1Cl)[*:2]; Palmitoyl = CCCCCCCCCCCCCCCC(=O)*; Hyp = O=C(O)[C@@H]1C[C@@H](O)CN1; X4 = Cc1cc(C(=O)[*:2])ccc1N[*:1]; Myristoyl = CCCCCCCCCCCCCC(=O)*; Lauroyl = CCCCCCCCCCCC(=O)*; 4Abz = Nc1ccc(C(=O)O)cc1; ξF = NC(Cc1ccccc1)C(=O)O

Key:
in vivo = details: mouse, po, 416 mg/kg
Experimental: (§1) In this test, mice are gavaged with a dose of 416 mg/kg of the test compound suspended in 33% PEG 400-water. At time intervals, blood samples are taken from the orbital sinus and are assayed for antibiotic activity as follows: A 7 mm. disc containing 20 μl of whole blood is placed on agar seeded with Aspergillus montevidensis A35137. After 40 hours incubation at 30° C. zones of inhibition from the blood samples are compared to a standard obtained from the test compound, and the amount of compound in the blood sample is calculated.

Candida albicans A-26 [1] = test: Agar plate disc diffusion test, zone of inhibition; type: cell-based; details: 1 mg/ml suspension in methanol, 7 mm disc, 24-48 hours at 25-37° C., no regrowth mark
Experimental: (§2) ^(a) Compounds were tested as suspension in methanol.
(§3) were tested at a concentration of 1 mg/ml by a dipping 7mm disc into the
(§4) suspension and placing it on the agar surface. Incubation: 24-48 hours at

Candida albicans A-26 [2] = test: Therapeutic activity against Candida albicans A-26 infection in mice; type: in vivo; details: A26, sc
Experimental: The results of in vivo tests to evaluate the effectiveness of the compound of Examples 61-81, 86 and 88 against an infection caused by Candida albicans A-26 in mice are given in Table 7, where activity is measured by the ED50 value (the dose in mg/kg. required to cure 50% of the test animals). Where an ED50 value was not obtained, activity is indicated by the lowest dose at which a significant anti-fungal effect is observed. In this test, groups of male albino mice (specific pathogen free), weighing 18 to 20 grams, are infected intravenously with Candida albicans A-26. The animals are X-irradiated 24 hours prior to infection at about 50 roentgens per minute for 8 minutes (400 total dose) to reduce immune responses to the infecting organism. At 0, 4, and 24 hours post infection each group of mice is given graded doses subcutaneously of the test compound as a suspension in 33% polyethylene glycol-water. The day of death for each animal is recorded.
*Dosage Schedule: 40, 20, 15, and 10 mg/kg. Dosages given 0, 4, and 24
hours post injection as suspension of test compound in 30% PEGH2 O.
Number of mice receiving test compounds at each dosage level: 6 mice per
group. Number of mice in control (untreated) group: 10 mice per group.
**As measured by increase in survival time of treated animals versus
control, calculated by method of Reed V. Mueuch, American J. Hygiene, 493

[3] = test system: Trychophyton mentagrophytes #6; test: Agar plate disc diffusion test, MIC per disc; type: cell-based; details: 0.01M sodium borate, pH 7.5, 24 hours at 30° C.
Experimental: (§5) In Table 5, activity is measured by the minimal inhibitory concentration (MIC) of the substance (μg/disc) required to inhibit growth of the test organism.
(§6) *Compounds were suspended in 0.01M sodium borate solution, pH 7.5.
(§7) compounds were tested at 20 μg/disc at top level and at twofold
(§8) dilutions until end points were reached.

[4] = test system: Saccharomyces pastorianus X-52; test: Agar plate disc diffusion test, zone of inhibition; type: cell-based; details: Saccharomyces pastorianus, X52, 48 h, 1 mg/ml suspension in methanol, 7 mm disc, 24-48 hours at 25-37° C.
Experimental: as §2, §3, §4

[5] = test system: Trichophyton mentagrophytes; test: Agar plate disc diffusion test, zone of inhibition; type: cell-based; details: 7 mm disc
Experimental: as §2, §3, §4

Candida albicans A-26 [6] = test: Agar plate disc diffusion test, MIC per disc; type: cell-based; details: 0.01M sodium borate, pH 7.5, 24 hours at 30° C.
Experimental: as §5, §6, §7, §8

Neurospora Crassa 846 = test: Agar plate disc diffusion test, zone of inhibition; type: cell-based; details: Neurospora crassa, 1 mg/ml, 7 mm disc, * measurable zone of inhibition with regrowth of organism around disc
Experimental: as §2, §3, §4

[7] = Blood levels after oral administration in mice; details: for concentration at 4 h: mouse, po, 416 mg/kg
Experimental: as §1

[8] = mouse, in vivo, 416 mg/kg, 240 min
Experimental: as §1

[9] = subcutaneous at 0, 4 and 24 hours post infection, dose to cure 50% of test animals, by increase in survival time, read-out: ED50
[10] = subcutaneous at 0, 4 and 24 hours post infection, lowest dose with significant anti-fungal effect, read-out: Lowest Active Dose
[11] = Saccharomyces pastorianus X-52, read-out: Size of Zone of Inhibition
[12] = CRASSA846, Neurospora Crassa 846, read-out: Size of Zone of Inhibition (*)
[13] = read-out: Lowest Active Dose, subcutaneous at 0, 4 and 24 hours post infection, lowest dose with significant anti-fungal effect
[14] = 1 mg/ml, * measurable zone of inhibition with regrowth of organism around disc, read-out: Size of Zone of Inhibition (*)

| SMILES | concentration at 4 h (in vivo) [ng/mL] | Size of Zone of Inhibition (Candida albicans A-26 [1]) [mm] | ED50 (Candida albicans A-26 [2]; [9]) [mg/kg] | minimal effective dose (Candida albicans A-26 [2]; [10]) [mg/kg] | MIC [3] [μg/disc] | zone of inhibition at 1000 µg/mL [4, 11] [mm] | zone of inhibition at 1000 µg/mL ([5]; 48 h, 1 mg/ml suspension in methanol, 24-48 hours at 25-37° C., no regrowth mark, read-out: Size of Zone of Inhibition) [mm] | MIC (Candida albicans A-26 [6]) | zone of inhibition at 1000 µg/mL (Neurospora Crassa 846; [12]) [mm] | ED50 (Candida albicans A-26 [2]) [mg/kg] | minimal effective dose (Candida albicans A-26 [2]; [13]) [mg/kg] | concentration at 4 h ([7]; blood) [ng/mL] | zone of inhibition at 1000 µg/mL ([4]; read-out: Size of Zone of Inhibition, Saccharomyces pastorianus X-52) [mm] | concentration at 4 h ([7]; in vivo) [ng/mL] | zone of inhibition at 1000 µg/mL (Neurospora Crassa 846; CRASSA846, read-out: Size of Zone of Inhibition (*), Neurospora Crassa 846) [mm] | zone of inhibition at 1000 µg/mL [5, 14] [mm] | Blood Levels [8] [ng/mL] | Blood Levels ([7]; mice, 416 mg/kg by gavage in 33% PEG 400-water, four hours after administration, bioassay vs. Aspergillus montevidensis A35137) [ng/mL] |
| --- | --- | --- | --- | --- | --- | --- | --- | --- | --- | --- | --- | --- | --- | --- | --- | --- | --- | --- |
| CCCCCCCCCCCC(=O)Nc1c(I)cc(C(=O)N[C@H]2C[C@@H](O)[C@@H](O)NC(=O)[C@@H]3[C@@H](O)[C@@H](C)CN3C(=O)[C@H]([C@@H](C)O)NC(=O)[C@H]([C@H](O)[C@@H](O)c3ccc(O)cc3)NC(=O)[C@@H]3C[C@@H](O)CN3C(=O)[C@H]([C@@H](C)O)NC2=O)cc1I [Example 68] (Lauroyl-[X1][Orn(4R-OH,5R-OH)]T[Hyp][hTyr(3S-OH,4S-OH)]T[Pro(3S-OH,4S-Me)]; lactam 2-C) | 340 | 25 | > 40 | 40 | 0.078 | 17 | 60 | 1.25 μg/disc | 30 | – | – | – | – | – | – | – | – | – |
| CCCCCCCCCCCCCC(=O)Nc1ccc(C(=O)N[C@H]2C[C@@H](O)[C@@H](O)NC(=O)[C@@H]3[C@@H](O)[C@@H](C)CN3C(=O)[C@H]([C@@H](C)O)NC(=O)[C@H]([C@H](O)[C@@H](O)c3ccc(O)cc3)NC(=O)[C@@H]3C[C@@H](O)CN3C(=O)[C@H]([C@@H](C)O)NC2=O)cc1 [Example 80] ({Myristoyl-4Abz}-[Orn(4R-OH,5R-OH)]T[Hyp][hTyr(3S-OH,4S-OH)]T[Pro(3S-OH,4S-Me)]; lactam 1-C) | – | 22 | – | – | < 0.039 | 17 | – | 1.25 μg/disc | – | 11 | 2.5 | 6500 | – | – | – | – | – | – |
| CCCCCCCCCCCC(=O)Nc1ccc(C(=O)NCC(=O)N[C@H]2C[C@@H](O)[C@@H](O)NC(=O)[C@@H]3[C@@H](O)[C@@H](C)CN3C(=O)[C@H]([C@@H](C)O)NC(=O)[C@H]([C@H](O)[C@@H](O)c3ccc(O)cc3)NC(=O)[C@@H]3C[C@@H](O)CN3C(=O)[C@H]([C@@H](C)O)NC2=O)cc1 [Example 74] ({Lauroyl-4Abz}-G[Orn(4R-OH,5R-OH)]T[Hyp][hTyr(3S-OH,4S-OH)]T[Pro(3S-OH,4S-Me)]; lactam 2-C) | – | 15 | – | – | 0.078 | – | – | 10 μg/disc | – | > 40 | > 40 | – | 13 | 640 | 28 | – | – | – |
| CCCCCCCCCCCC(=O)NC(Cc1ccccc1)C(=O)N[C@H]1C[C@@H](O)[C@@H](O)NC(=O)[C@@H]2[C@@H](O)[C@@H](C)CN2C(=O)[C@H]([C@@H](C)O)NC(=O)[C@H]([C@H](O)[C@@H](O)c2ccc(O)cc2)NC(=O)[C@@H]2C[C@@H](O)CN2C(=O)[C@H]([C@@H](C)O)NC1=O (stereo partly drawn) [Example 61] (Lauroyl-[ξF][Orn(4R-OH,5R-OH)]T[Hyp][hTyr(3S-OH,4S-OH)]T[Pro(3S-OH,4S-Me)]; lactam 2-C) | – | 25 | > 40 | > 40 | < 0.039 | 18 | – | 0.625 μg/disc | 42 | – | – | – | – | – | – | 55 | 0 | – |
| CCCCCCCCCCCC(=O)Nc1ccc(C(=O)N[C@H]2C[C@@H](O)[C@@H](O)NC(=O)[C@@H]3[C@@H](O)[C@@H](C)CN3C(=O)[C@H]([C@@H](C)O)NC(=O)[C@H]([C@H](O)[C@@H](O)c3ccc(O)cc3)NC(=O)[C@@H]3C[C@@H](O)CN3C(=O)[C@H]([C@@H](C)O)NC2=O)cc1C [Example 70] (Lauroyl-[X4][Orn(4R-OH,5R-OH)]T[Hyp][hTyr(3S-OH,4S-OH)]T[Pro(3S-OH,4S-Me)]; lactam 2-C) | – | 26 | > 40 | > 40 | < 0.039 | 19 | – | 20 μg/disc | 25 | – | – | – | – | – | – | 45 | 0 | – |
| CC(=O)Nc1ccc(C(=O)N[C@H]2C[C@@H](O)[C@@H](O)NC(=O)[C@@H]3[C@@H](O)[C@@H](C)CN3C(=O)[C@H]([C@@H](C)O)NC(=O)[C@H]([C@H](O)[C@@H](O)c3ccc(O)cc3)NC(=O)[C@@H]3C[C@@H](O)CN3C(=O)[C@H]([C@@H](C)O)NC2=O)cc1 [Example 77] (Ac-[4Abz][Orn(4R-OH,5R-OH)]T[Hyp][hTyr(3S-OH,4S-OH)]T[Pro(3S-OH,4S-Me)]; lactam 2-C) | – | 24 | – | – | 0.312 | 17 | – | > 20 μg/disc and 40 μg/disc | 24 | > 40 | > 40 | – | – | – | – | 51 | – | 0 |
| CCCCCCCCCCCCCCCC(=O)Nc1ccc(C(=O)N[C@H]2C[C@@H](O)[C@@H](O)NC(=O)[C@@H]3[C@@H](O)[C@@H](C)CN3C(=O)[C@H]([C@@H](C)O)NC(=O)[C@H]([C@H](O)[C@@H](O)c3ccc(O)cc3)NC(=O)[C@@H]3C[C@@H](O)CN3C(=O)[C@H]([C@@H](C)O)NC2=O)cc1 [Example 81] ({Palmitoyl-4Abz}-[Orn(4R-OH,5R-OH)]T[Hyp][hTyr(3S-OH,4S-OH)]T[Pro(3S-OH,4S-Me)]; lactam 1-C) | – | 25 | – | – | < 0.039 | 24 | – | 0.312 μg/disc | – | 7 | 5 | 36000 | – | – | – | – | – | – |
| CCCCCCCCCCCC(=O)Nc1cc(Cl)cc(C(=O)N[C@H]2C[C@@H](O)[C@@H](O)NC(=O)[C@@H]3[C@@H](O)[C@@H](C)CN3C(=O)[C@H]([C@@H](C)O)NC(=O)[C@H]([C@H](O)[C@@H](O)c3ccc(O)cc3)NC(=O)[C@@H]3C[C@@H](O)CN3C(=O)[C@H]([C@@H](C)O)NC2=O)c1Cl [Example 67] (Lauroyl-[X5][Orn(4R-OH,5R-OH)]T[Hyp][hTyr(3S-OH,4S-OH)]T[Pro(3S-OH,4S-Me)]; lactam 2-C) | – | 27 | – | – | < 0.039 | 19 | – | 0.625 μg/disc | 35 | 14 | 10 | 530 | – | – | – | 44 | – | – |
